Laboratory results: ChEMBL document CHEMBL4257222, “Use of small molecule inhibitors targeting eya tyrosine phosphatase” (2016)
The source made the active and inactive calls. The calls are words filed in the database; no cut-off is given here.

How the values were obtained:
[1] = target: T1, Protein phosphatase EYA2 (Homo sapiens) (UniProt O00167); test: Inhibition of Eya2 (unknown origin) expressed in human MCF10A cells assessed as reduction in cell migration; format: cell-based
T1 sequence (whole entry): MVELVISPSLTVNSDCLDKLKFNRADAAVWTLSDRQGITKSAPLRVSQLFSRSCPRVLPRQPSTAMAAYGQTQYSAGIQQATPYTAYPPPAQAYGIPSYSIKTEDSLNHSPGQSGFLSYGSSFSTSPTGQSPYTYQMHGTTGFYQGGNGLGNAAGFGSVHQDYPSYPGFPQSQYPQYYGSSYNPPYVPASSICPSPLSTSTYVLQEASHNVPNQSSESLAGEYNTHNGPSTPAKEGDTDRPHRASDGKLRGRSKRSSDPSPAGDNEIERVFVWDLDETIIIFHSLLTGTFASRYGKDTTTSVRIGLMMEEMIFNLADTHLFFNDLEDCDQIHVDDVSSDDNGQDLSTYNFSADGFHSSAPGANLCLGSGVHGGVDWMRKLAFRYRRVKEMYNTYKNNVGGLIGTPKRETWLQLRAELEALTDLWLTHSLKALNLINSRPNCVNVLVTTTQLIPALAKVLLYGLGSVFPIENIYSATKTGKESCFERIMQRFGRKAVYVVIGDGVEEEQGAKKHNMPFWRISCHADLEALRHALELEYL

[2] = tested on: T2, Protein phosphatase EYA2 (Homo sapiens), O00167 [D250N]; test: Inhibition of Eya2 D250N mutant (unknown origin) expressed in human MCF10A cells assessed as reduction in cell migration; format: cell-based; conditions: concentration not given here
T2 sequence (whole entry): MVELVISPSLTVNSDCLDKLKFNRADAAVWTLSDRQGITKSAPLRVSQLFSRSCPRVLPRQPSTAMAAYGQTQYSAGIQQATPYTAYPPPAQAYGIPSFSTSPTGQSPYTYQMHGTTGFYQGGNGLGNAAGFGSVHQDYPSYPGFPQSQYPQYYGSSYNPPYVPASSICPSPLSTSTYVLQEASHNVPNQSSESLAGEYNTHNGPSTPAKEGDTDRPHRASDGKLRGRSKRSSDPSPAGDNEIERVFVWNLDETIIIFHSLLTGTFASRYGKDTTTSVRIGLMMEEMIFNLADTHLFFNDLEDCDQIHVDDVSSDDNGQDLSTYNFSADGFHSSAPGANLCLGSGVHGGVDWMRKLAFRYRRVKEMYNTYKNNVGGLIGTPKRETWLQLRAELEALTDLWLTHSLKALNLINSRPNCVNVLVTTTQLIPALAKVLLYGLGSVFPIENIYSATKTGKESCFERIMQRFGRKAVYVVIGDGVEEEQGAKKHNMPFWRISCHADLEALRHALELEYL

MCF-10A = test: Toxicity in human MCF10A cells expressing Eya2 (unknown origin) assessed as effect on cell proliferation of; format: cell-based
HUVEC [3] = test: Toxicity in HUVEC assessed as reduction in cell proliferation incubated for 3 days by WST8 assay; format: cell-based; set-up: scale not given: the % may be the effect or the level left; conditions: human, 72 h
HUVEC [4] = test: Inhibition of tube formation of HUVEC by matrigel tube-formation assay; format: functional, cell-based; conditions: Homo sapiens
HUVEC [5] = test: Inhibition of cell motility of HUVEC; format: functional, cell-based; conditions: Homo sapiens
HUVEC [6] = test: Toxicity in HUVEC assessed as effect on cell proliferation by MTT assay; format: cell-based; conditions: human
HUVEC [7] = test: Inhibition of tubulogenesis of HUVEC grown on growth factor-reduced matrigel at 7.5 uM by inverted microscopy; format: functional, cell-based; conditions: Homo sapiens
Aorta [8] = test: Inhibition of endothelial cell migration in VEGF165-stimulated […] mouse aortic rings incubated in collagen matrix assessed as induction of shorter sprouts incubated for 10 days by aortic ring assay; format: functional, tissue-based
Aorta [9] = test: Inhibition of endothelial cell migration in VEGF165-stimulated […] mouse aortic rings incubated in collagen matrix assessed as reduction in microvascular density incubated for 10 days by aortic ring assay; format: functional, tissue-based
Danio rerio [10] = species: Danio rerio; test: Inhibition of angiogenesis in FLK1-GFP trangenic zebrafish model of angiogenesis assessed as induction of defects in developing vasculature measured after 24 hpf stage by fluorescence microscopy; format: functional, organism-based
Danio rerio [11] = species: Danio rerio; test: Inhibition of angiogenesis in FLK1-GFP trangenic zebrafish model of angiogenesis assessed as reduction in intersegmental vessel number and extension measured after 24 hpf stage by fluorescence microscopy; format: functional, organism-based
Danio rerio [12] = species: Danio rerio; test: Inhibition of angiogenesis in FLK1-GFP trangenic zebrafish model of angiogenesis assessed as effect on vasculature exposed to compound starting at later stage (20 hpf) by fluorescence microscopy; format: functional, organism-based
Mus musculus [13] = species: Mus musculus; test: Inhibition of proliferative retinopathy in mouse model of oxygen-induced retinopathy assessed as reduction in formation of neovascular tufts at 50 to 100 pmole injected at P12 and measured at P16; format: functional, organism-based
Mus musculus [14] = species: Mus musculus; test: Inhibition of proliferative retinopathy in mouse model of oxygen-induced retinopathy assessed as reduction in revascularization into the vaso-obliterated area at 50 to 100 pmole injected at P12 and measured at P16; format: functional, organism-based
A673 = test: Antitumor activity against human A673 cells xenografted in nude mouse assessed as inhibition tumor growth at 25 mg/kg/day, ip and measured every other day for 2 weeks; format: functional, organism-based
[15] = target: T3, Protein phosphatase EYA3 (Homo sapiens) (UniProt Q99504); conditions: 50 uM
T3 sequence (whole entry): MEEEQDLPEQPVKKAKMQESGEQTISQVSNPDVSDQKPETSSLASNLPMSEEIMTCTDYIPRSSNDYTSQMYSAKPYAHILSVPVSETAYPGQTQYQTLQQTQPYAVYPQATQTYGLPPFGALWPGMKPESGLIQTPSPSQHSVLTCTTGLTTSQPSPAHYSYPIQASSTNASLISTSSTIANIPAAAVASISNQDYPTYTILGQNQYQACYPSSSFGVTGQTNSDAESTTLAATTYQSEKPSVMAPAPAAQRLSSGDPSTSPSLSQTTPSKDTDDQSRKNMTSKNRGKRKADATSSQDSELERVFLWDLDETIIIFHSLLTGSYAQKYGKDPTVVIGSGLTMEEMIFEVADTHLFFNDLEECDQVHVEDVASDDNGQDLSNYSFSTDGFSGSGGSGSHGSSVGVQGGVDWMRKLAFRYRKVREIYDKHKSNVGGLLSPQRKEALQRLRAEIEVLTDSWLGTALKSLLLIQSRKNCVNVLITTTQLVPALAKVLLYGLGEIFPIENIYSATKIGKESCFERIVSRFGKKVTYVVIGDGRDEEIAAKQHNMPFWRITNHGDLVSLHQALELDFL
Description: Inhibition of human Eya3 isoform 2 (127 to 573 residues) interaction with His-tagged SIX2 at 50 uM by Ni-NTA agarose gel based pull down assay

Aorta [16] = test: Inhibition of sprouting in mouse aorta cultured in collagen gels at 7.5 uM by aortic ring sprouting assay; format: functional, tissue-based
Aorta [17] = test: Inhibition of branching in mouse aorta cultured in collagen gels assessed as reduction in number of branch-points at 7.5 uM by aortic ring sprouting assay; format: functional, tissue-based
HUVEC [18] = test: Inhibition of tube formation of HUVEC assessed as induction of endothelial cells aggregation by matrigel tube-formation assay; format: functional, cell-based; conditions: Homo sapiens
HUVEC [19] = test: Inhibition of tube formation of HUVEC assessed as induction of reduction in endothelial cells organization after 2 hrs by matrigel tube-formation assay; format: functional, cell-based; conditions: Homo sapiens
HUVEC [20] = test: Inhibition of tube formation of HUVEC assessed as induction of reduction in endothelial cells organization after 6 hrs by matrigel tube-formation assay; format: functional, cell-based; conditions: Homo sapiens
HUVEC [21] = test: Inhibition of tube formation of HUVEC assessed as reduction of interconnecting cellular aggregates of endothelial cells after 20 hrs by matrigel tube-formation assay; format: functional, cell-based; conditions: Homo sapiens
HUVEC [22] = test: Inhibition of tube formation of HUVEC in presence of hight level of fetal bovine serum by matrigel tube-formation assay; format: functional, cell-based; conditions: Homo sapiens
[23] = Selectivity index, ratio of IC50 for inhibition of PTP1B (unknown origin) by p-nitrophenylphosphate assay to IC50 for inhibition of mouse Eya3 catalytic domain (223 to 510 residues) by p-nitrophenylphosphate assay
[24] = target: T1, Protein phosphatase EYA2 (Homo sapiens); test: Inhibition of Eya2 (unknown origin) expressed in human MCF10A cells assessed as reduction in cell migration at 1 uM; format: cell-based
HUVEC [25] = test: Inhibition of tubulogenesis of HUVEC grown on growth factor-reduced matrigel by inverted microscopy; format: functional, cell-based; conditions: Homo sapiens
HUVEC [26] = test: Inhibition of tubulogenesis of HUVEC grown on growth factor-reduced matrigel at 2.5 uM by inverted microscopy; format: functional; conditions: Homo sapiens
Mus musculus [27] = species: Mus musculus; test: Inhibition of post-natal retinal angiogenesis in postnatal mouse assessed as reduction in branch points at 100 uM injected into eyes at P0.5, P3 and P5; format: functional, organism-based

| Structure (SMILES) | inhibition [1] | inhibition [2] | Activity (MCF-10A) | Activity (HUVEC [3]) | inhibition (HUVEC [4]) | inhibition (HUVEC [5]) | Activity (HUVEC [6]) | inhibition (Aorta [8]) | inhibition (Aorta [9]) | inhibition (Danio rerio [10]) | inhibition (Danio rerio [11]) | inhibition (Danio rerio [12]) | inhibition (Mus musculus [13]) | inhibition (Mus musculus [14]) | inhibition (Aorta [16]) | inhibition (Aorta [17]) | other results |
| --- | --- | --- | --- | --- | --- | --- | --- | --- | --- | --- | --- | --- | --- | --- | --- | --- | --- |
| CCc1oc2ccccc2c1C(=O)c1cc(Br)c(O)c(Br)c1 [BENZBROMARONE] | Dose-dependent effect | < 10% | Non-Toxic | Toxic | Active | Active | Non-Toxic | Dose-dependent effect | Dose-dependent effect | Dose-dependent effect | Dose-dependent effect | inactive | Active | Active |  |  | inhibition (HUVEC [7]): Active; TGI (A673): Active; inhibition [15]: inactive |
| CCc1oc2ccc(O)cc2c1C(=O)c1cc(Br)c(O)c(Br)c1 |  |  |  |  | inactive |  |  |  |  |  |  |  |  |  | Active | Active |  |
| Cc1oc2ccccc2c1C(=O)c1cc(I)c(O)c(I)c1 |  |  |  |  | inactive |  |  |  |  |  |  |  |  |  | Active | Active |  |
| Cc1oc2ccccc2c1C(=O)c1ccc(O)c(I)c1 |  |  |  |  | inactive |  |  |  |  |  |  |  |  |  | Active | Active |  |
| CC(O)c1oc2ccccc2c1C(=O)c1cc(Br)c(O)c(Br)c1 (stereo not given) |  |  |  |  |  |  |  |  |  |  |  |  |  |  | Active | Active |  |
| CCCCc1oc2ccccc2c1C(=O)c1ccc(O)cc1 | Dose-dependent effect | < 10% | Non-Toxic |  |  | Active | Non-Toxic | Dose-dependent effect | Dose-dependent effect | Dose-dependent effect | Dose-dependent effect | inactive | Active | Active |  |  | inhibition (HUVEC [7]): Active |
| CCCCc1oc2ccccc2c1C(=O)c1cc(I)c(O)c(I)c1 |  |  |  |  | inactive |  |  |  |  |  |  |  |  |  | Active | Active |  |
| CCc1oc2cc(O)ccc2c1C(=O)c1cc(Br)c(O)c(Br)c1 |  |  |  | > 50% | Active |  |  |  |  |  |  |  |  |  | Active | Active | inhibition (HUVEC [18]): Active; inhibition (HUVEC [19]): Active; inhibition (HUVEC [20]): Active; inhibition (HUVEC [21]): Active; inhibition (HUVEC [22]): inactive |
| CCc1oc2ccccc2c1C(=O)c1ccc(O)cc1 [BENZARONE] | Dose-dependent effect | < 10% | Non-Toxic | Toxic | Active | Active | Non-Toxic | Dose-dependent effect | Dose-dependent effect | Dose-dependent effect | Dose-dependent effect | inactive | Active | Active |  |  | Ratio IC50 [23]: > 100; inhibition [24]: > 50%; inhibition (HUVEC [25]): Dose-dependent effect; inhibition at 2.5 µM (HUVEC [26]): 50%; inhibition (Mus musculus [27]): Active |
| CC(O)CCc1oc2ccccc2c1C(=O)c1cc(I)c(O)c(I)c1 (stereo not given) |  |  |  |  | inactive |  |  |  |  |  |  |  |  |  | Active | Active |  |
